Tests used:
human TLR8 = target: T1, human TLR8 (Homo sapiens, UniProt Q9NR97); assay: HEK293-Blue-hTLR-8 cells assay; format: cell-based; details: HEK293-Blue-hTLR8 cells, R848 stimulation, 20 hrs, SEAP reporter; read-out: HEK/hTLR8 IC50
T1 construct: host or cells: HEK293 (HEK-Blue hTLR8)
T1 sequence (Q9NR97 27-1041): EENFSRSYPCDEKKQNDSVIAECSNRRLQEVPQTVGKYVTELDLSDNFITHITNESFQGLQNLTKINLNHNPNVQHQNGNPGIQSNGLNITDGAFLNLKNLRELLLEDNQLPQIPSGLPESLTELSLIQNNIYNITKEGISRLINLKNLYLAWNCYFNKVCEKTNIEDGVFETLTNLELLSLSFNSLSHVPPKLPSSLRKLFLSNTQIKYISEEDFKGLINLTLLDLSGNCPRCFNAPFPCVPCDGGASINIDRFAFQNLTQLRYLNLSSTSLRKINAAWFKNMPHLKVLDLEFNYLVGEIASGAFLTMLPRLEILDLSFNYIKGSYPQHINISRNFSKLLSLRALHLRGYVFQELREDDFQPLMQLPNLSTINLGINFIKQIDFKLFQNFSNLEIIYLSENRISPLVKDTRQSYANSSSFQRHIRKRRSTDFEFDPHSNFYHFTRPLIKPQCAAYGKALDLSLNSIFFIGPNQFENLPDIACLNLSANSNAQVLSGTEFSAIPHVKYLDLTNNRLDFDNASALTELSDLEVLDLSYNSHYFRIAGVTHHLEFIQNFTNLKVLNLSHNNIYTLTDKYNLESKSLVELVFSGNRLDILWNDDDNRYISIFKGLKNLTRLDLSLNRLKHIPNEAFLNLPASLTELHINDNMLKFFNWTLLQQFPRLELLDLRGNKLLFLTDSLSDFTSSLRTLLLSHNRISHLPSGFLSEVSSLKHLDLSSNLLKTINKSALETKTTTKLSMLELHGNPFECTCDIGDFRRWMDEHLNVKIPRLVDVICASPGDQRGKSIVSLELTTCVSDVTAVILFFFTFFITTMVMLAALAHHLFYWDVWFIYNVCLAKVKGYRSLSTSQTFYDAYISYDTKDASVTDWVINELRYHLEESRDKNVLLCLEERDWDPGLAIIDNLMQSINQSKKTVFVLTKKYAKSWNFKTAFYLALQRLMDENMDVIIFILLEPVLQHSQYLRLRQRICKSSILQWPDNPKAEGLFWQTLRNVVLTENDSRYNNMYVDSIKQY
Description: A stable HEK293-Blue-hTLR-8 cell line was purchased from InvivoGen (Cat.#: hkb-htlr8, San Diego, California, USA). These cells were originally designed for studying the stimulation of human TLR8 by monitoring the activation of NF-κB. A SEAP (secreted embryonic alkaline phosphatase) reporter gene was placed under the control of the IFN-β minimal promoter fused to five NF-κB and AP-1-binding sites. The SEAP was induced by activating NF-κB and AP-1 via stimulating HEK-Blue hTLR8 cells with TLR8 ligands. Therefore the reporter expression was declined by TLR8 antagonist under the stimulation of a ligand, such as R848, for incubation of 20 hrs. The cell culture supernatant SEAP reporter activity was determined using QUANTI-Blue™ kit (Cat.#: rep-qb1, Invivogen, San Diego, Ca, USA) at a wavelength of 640 nm, a detection medium that turns purple or blue in the presence of alkaline phosphatase.
HEK293-Blue-hTLR8 cells were incubated at a density of 250,000~450,000 cells/mL in a volume of 170 µL in a 96-well plate in Dulbecco’s Modified Eagle’s medium (DMEM) containing 4.5 g/L glucose, 50 U/mL penicillin, […], […], 2 mM L-glutamine, 10% (v/v) heat-inactivated fetal bovine serum with addition of 20 µL test compound in a serial dilution in the presence of final DMSO at 1% and 10 µL of 60uM R848 in above DMEM, perform incubation under 37° C. in a CO2 incubator for 20 hrs. Then 20 µL of the supernatant from each well was incubated with 180 µL Quanti-blue substrate solution at 37° C. for 2 hrs and the absorbance was read at 620 \~655 nm using a spectrophotometer. The signaling pathway that TLR8 activation leads to downstream NF-κB activation has been widely accepted, and therefore similar reporter assay was modified for evaluating TLR8 antagonist.

[1] = Human microsome stability assay; format: in vitro ADME; details: 1 µM test compound, 0.5 mg/mL liver microsomal protein, 37° C., pH 7.4
Procedure: The human microsomal stability assay is used for early assessment of metabolic stability of a test compound in human liver microsomes.
Human liver microsomes (Cat.NO.: 452117, Corning, USA;Cat.NO.:H2610, Xenotech, USA) were preincubated with test compound for 10 minutes at 37° C. in 100 mM potassium phosphate buffer, pH 7.4. The reactions were initiated by adding NADPH regenerating system. The final incubation mixtures contained 1 µM test compound, 0.5 mg/mL liver microsomal protein, 1 mM MgCl2, 1 mM NADP, 1 unit/mL isocitric dehydrogenase and 6 mM isocitric acid in 100 mM potassium phosphate buffer, pH 7.4. After incubation times of 0, 3, 6, 9, 15 and 30 minutes at 37° C., 300 µL of cold acetonitrile (including internal standard) was added to 100 µL incubation mixture to terminate the reaction. Following precipitation and centrifugation, the amount of compound remaining in the samples were determined by LC-MS/MS. Controls of no NADPH regenerating system at zero and 30 minutes were also prepared and analyzed.

| IC50 (human TLR8) [nM] | Clearance of Human microsome [1] [mL/min/kg] | SMILES |
| --- | --- | --- |
| 0.7 | 6.5 | CCc1nc(N2CCN(Cc3cnc(N4CC5(CNCCO5)C4)nc3)CC2)ccc1-c1cc(C)c(=O)n(C)c1 [Example 1, 5-[2-ethyl-6-[4-[[2-(5-oxa-2,8-diazaspiro[3.5]nonan-2-yl)pyrimidin-5-yl]methyl]piperazin-1-yl]-3-pyridyl]-1,3-dimethyl-pyridin-2-one] |
| 0.3 | 12.0 | CCc1nc(N2CCN(Cc3ccc(N4CC5(CNCCO5)C4)nc3)CC2)ccc1-c1cc(C)c(=O)n(C)c1 [Example 2, 5-[2-ethyl-6-[4-[[6-(5-oxa-2,8-diazaspiro[3.5]nonan-2-yl)-3 pyridyl]methyl]piperazin-1-yl]-3-pyridyl]-1,3-dimethyl-pyridin-2-one] |
| 0.3 | 6.1 | CCc1nc(N2CCN(Cc3cnc(N4CC(C)(N)C4)nc3)CC2)ccc1-c1cc(C)c(=O)n(C)c1 [Example 3, 5-[6-[4-[[2-(3-amino-3-methyl-azetidin-1-yl)pyrimidin-5-yl]methyl]piperazin-1-yl]-2-ethyl-3-pyridyl]-1,3-dimethyl-pyridin-2-one] |
| 0.6 | – | CCc1nc(N2CCN(Cc3cnc(N4CCOC[C@@H](N)C4)nc3)CC2)ccc1-c1cc(C)c(=O)n(C)c1 [Example 4, 5-[6-[4-[[2-[(6S)-6-amino-1,4-oxazepan-4-yl]pyrimidin-5-yl]methyl]piperazin-1-yl]-2-ethyl-3-pyridyl]-1,3-dimethyl-pyridin-2-one] |
| 0.3 | – | CCc1nc(N2CCN(Cc3ccc(N4CCNCC4)cc3)CC2)ccc1-c1cc(C)c(=O)n(C)c1 [Example 5, 5-[2-ethyl-6-[4-[(4-piperazin-1-ylphenyl)methyl]piperazin-1-yl]-3-pyridyl]-1,3-dimethyl-pyridin-2-one] |
| 0.3 | – | Cc1cc(-c2ccc(N3CCN(Cc4cnc(N5CC6(CNCCO6)C5)nc4)CC3)nc2C(C)C)cn(C)c1=O [Example 6, 5-[2-isopropyl-6-[4-[[2-(5-oxa-2,8-diazaspiro[3.5]nonan-2-yl)pyrimidin-5-yl]methyl]piperazin-1-yl]-3-pyridyl]-1,3-dimethyl-pyridin-2-one] |
| 0.3 | 7.4 | Cc1cc(-c2ccc(N3CCN(Cc4ccc(N5CCNCC5)cn4)CC3)nc2C(C)C)cn(C)c1=O [Example 7, 5-[2-isopropyl-6-[4-[(5-piperazin-1-yl-2-pyridyl)methyl]piperazin-1-yl]-3-pyridyl]-1,3-dimethyl-pyridin-2-one] |
| 0.3 | 8.3 | Cc1cc(-c2ccc(N3CCN(Cc4cnc(N5CCNCC5)cn4)CC3)nc2C(C)C)cn(C)c1=O [Example 8, 5-[2-isopropyl-6-[4-[(5-piperazin-1-ylpyrazin-2-yl)methyl]piperazin-1-yl]-3-pyridyl]-1,3-dimethyl-pyridin-2-one] |
| 0.3 | 7.8 | Cc1cc(-c2ccc(N3CCN(Cc4cnc(N5CCNCC5)nc4)CC3)nc2C(C)C)cn(C)c1=O [Example 9, 5-[2-isopropyl-6-[4-[(2-piperazin-1-ylpyrimidin-5-yl)methyl]piperazin-1-yl]-3-pyridyl]-1,3-dimethyl-pyridin-2-one] |
| 0.3 | – | Cc1cc(-c2ccc(N3CCN(Cc4cnc(N5CC(C)(N)C5)nc4)CC3)nc2C(C)C)cn(C)c1=O [Example 10, 5-[6-[4-[[2-(3-amino-3-methyl-azetidin-1-yl)pyrimidin-5-yl]methyl]piperazin-1-yl]-2-isopropyl-3-pyridyl]-1,3-dimethyl-pyridin-2-one] |
| 0.3 | – | Cc1cc(-c2ccc(N3CCN(Cc4ccc(N5CCNCC5)nc4)CC3)nc2C(C)C)cn(C)c1=O [Example 11, 5-[2-isopropyl-6-[4-[(6-piperazin-1-yl-3-pyridyl)methyl]piperazin-1-yl]-3-pyridyl]-1,3-dimethyl-pyridin-2-one] |
| 0.7 | 8.8 | Cc1cc(-c2ccc(N3CCN(Cc4ncc(N5CCNCC5)cn4)CC3)nc2C(C)C)cn(C)c1=O [Example 12, 5-[2-isopropyl-6-[4-[(5-piperazin-1-ylpyrimidin-2-yl)methyl]piperazin-1-yl]-3-pyridyl]-1,3-dimethyl-pyridin-2-one] |
| 0.3 | – | Cc1cc(-c2ccc(N3CCN(Cc4ccc(N5CCNCC5)cc4)CC3)nc2C(C)C)cn(C)c1=O [Example 13, 5-[2-isopropyl-6-[4-[(4-piperazin-1-ylphenyl)methyl]piperazin-1-yl]-3-pyridyl]-1,3-dimethyl-pyridin-2-one] |
| 0.3 | 8.3 | Cc1cc(-c2ccc(N3CCN(Cc4cccc(N5CCNCC5)c4)CC3)nc2C(C)C)cn(C)c1=O [Example 14, 5-[2-isopropyl-6-[4-[(3-piperazin-1-ylphenyl)methyl]piperazin-1-yl]-3-pyridyl]-1,3-dimethyl-pyridin-2-one] |
| 2 | 8.7 | Cc1cc(-c2ccc(N3CCN(c4ccc5c(n4)CCNC5)CC3)nc2C(C)C)cn(C)c1=O [Example 15, 5-[2-isopropyl-6-[4-(5,6,7,8-tetrahydro-1,6-naphthyridin-2-yl)piperazin-1-yl]-3-pyridyl]-1,3-dimethyl-pyridin-2-one] |
| 2 | – | Cc1cc(-c2ccc(N3CCN4CCN(c5ccc(N6CCNCC6)nc5)CC4C3)nc2C(C)C)cn(C)c1=O (stereo not shown) [Example 16, 5-[2-isopropyl-6-[8-(6-piperazin-1-yl-3-pyridyl)-3,4,6,7,9,9a-hexahydro-1H-pyrazino[1,2-a]pyrazin-2-yl]-3-pyridyl]-1,3-dimethyl-pyridin-2-one] |
| 0.3 | 8.5 | Cc1cc(-c2ccc(N3CCN(Cc4ccc(N5CCNCC5)cc4)CC3)nc2C(F)F)cn(C)c1=O [Example 17, 5-[2-(difluoromethyl)-6-[4-[(4-piperazin-1-ylphenyl)methyl]piperazin-1-yl]-3-pyridyl]-1,3-dimethyl-pyridin-2-one] |
| 5.9 | – | CCc1nc(N2CCN3CCN(c4cnc(N5CC6(CNCCO6)C5)nc4)CC3C2)ccc1-c1cc(C)c(=O)n(C)c1 (stereo not shown) [Example 19, 5-[2-ethyl-6-[2-[2-(5-oxa-2,8-diazaspiro[3.5]nonan-2-yl)pyrimidin-5-yl]-3,4,6,7,9,9a-hexahydro-1H-pyrazino[1,2-a]pyrazin-8-yl]-3-pyridyl]-1,3-dimethyl-pyridin-2-one] |

Reference: patent US20230295109A1, “PYRIDINONE COMPOUNDS FOR THE TREATMENT OF AUTOIMMUNE DISEASE” (F. Hoffmann-La Roche AG, priority 2020, published 2023)
